Assay results from patent publication US20100286081A1, “5-AMINO-3-(2',3'-DI-O-ACETYL-BETA-D-RIBOFURANOSYL)-3H-THIAZOLO[4,5-D] PYRIMIDIN-2-OCE SALTS AND CRYSTALLINE FORMS” (Anadys Pharmaceuticals Inc., priority 2006, published 2010).

Tests used:
[1] = Water sorption curve (DVS analysis at 25° C.); type: physicochemical; settings: for Weight change in %: DVS analysis at 25° C.
From the text: Water Sorption Curve of 5-amino-3-(2′,3′-di-O-acetyl-beta-D-ribofuranosyl)-3H-thiazolo[4,5-d]pyrimidin-2-one Amorphous Base (FIG. 6)
Water Sorption Curve of 5-amino-3-(2′,3′-di-O-acetyl-beta-D-ribofuranosyl)-3H-thiazolo[4,5-d]pyrimidin-2-one Maleate Salt (FIG. 7)

[2] = Stability of polymorphic form; type: physicochemical

SMILES | Weight change in % ([1]; 0-20% r.h.) [%] | Weight change in % ([1]; 0-40% r.h.) [%] | Weight change in % ([1]; 0-60% r.h.) [%] | Weight change in % ([1]; 0-80% r.h.) [%] | Weight change in % ([1]; 0-95% r.h.) [%] | Hygroscopicity (in words) [1] | Stability of polymorphic form (in words) [2]
CC(=O)O[C@@H]1[C@H](OC(C)=O)[C@@H](CO)O[C@H]1n1c(=O)sc2cnc(N)nc21.O=C(O)/C=C\C(=O)O [5-amino-3-(2′,3′-di-O-acetyl-beta-D-ribofuranosyl)-3H-thiazolo[4,5-d]pyrimidin-2-one maleate] | 0.08 | 0.17 | 0.23 | 0.32 | 0.31 | – | –
CC(=O)O[C@@H]1[C@H](OC(C)=O)[C@@H](CO)O[C@H]1n1c(=O)sc2cnc(N)nc21 [5-Amino-3-(2′,3′-di-O-acetyl-beta-D-ribofuranosyl)-3H-thiazolo[4,5-d]pyrimidin-2-one] | 0.50 | 0.86 | 1.55 | 3.07 | 4.68 | hygroscopic | –
CC(=O)O[C@@H]1[C@H](OC(C)=O)[C@@H](CO)O[C@H]1n1c(=O)sc2cnc(N)nc21.O=C(O)/C=C\C(=O)O [Form B, 5-Amino-3-(2′,3′-di-O-acetyl-beta-D-ribofuranosyl)-3H-thiazolo[4,5-d]pyrimidin-2-one maleate] | – | – | – | – | – | – | particularly stable polymorphic form
